Reference: ChEMBL document CHEMBL1137950, “Studies on 1-O-acetylbritannilactone and its derivative, (2-O-butyloxime-3-phenyl)-propionyl-1-O-acetylbritannilactone ester” (2004)
In brackets after ≈: the same amount, converted by molar mass.

Legend:
[1] = tested on: HL-60; assay: Compound was tested for its cytotoxic activity against human HL-60 promyelocytic leukemia cell line; assay type: functional; details: read-out: ID50 (the source's name)
[2] = tested on: Bel-7402; assay: Compound was tested for its cytotoxic activity against human Bel-7402 Hepatocellular carcinoma cell line; assay type: functional; details: read-out: ID50 (the source's name)

SMILES | IC50 [1] [µg/mL] | IC50 [2] [µg/mL]
C=C1C(=O)O[C@@H]2CC(C)=C([C@@H](C)CCCOC(C)=O)[C@H](OC(=O)/C(Cc3ccccc3)=N/OCCCC)[C@H]12 | 4.3 (≈ 8.18 µM) | 7.2 (≈ 13.7 µM)
C=C1C(=O)O[C@@H]2CC(C)=C([C@@H](C)CCCOC(C)=O)[C@H](O)[C@H]12 | 18.4 (≈ 59.7 µM) | 15.6 (≈ 50.6 µM)
